# Results published in ChEMBL document CHEMBL1201862, “PubChem BioAssay data set” (2004).
#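 The compound was tested at five concentrations on cells cultured in 96-well plates, with a 48-hour exposure period. The concentration for 50% growth inhibition is given as GI50.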 Activity calls are given as the source filed them. Cut-off read from the data, not from the text of the source: active = GI50 up to about 1.1 µM and inactive = higher.
# Experiments:
# Assay in all cases: NCI tumour cell line growth inhibition, 48 h
# [1] = test system: M14
# [2] = test system: SF-295
# [3] = test system: SK-MEL-2
# [4] = test system: OVCAR-3
# [5] = test system: A549
# [6] = test system: COLO 205
# [7] = test system: RXF 393
# [8] = test system: Hs-578T
# [9] = test system: SK-MEL-5
# [10] = test system: T47D
# [11] = test system: MDA-N
# [12] = test system: RPMI-8226
# [13] = test system: HCC 2998
# [14] = test system: BT-549
# [15] = test system: CCRF-CEM
# [16] = test system: HCT-116
# [17] = test system: NCI-H23
# [18] = test system: OVCAR-4
# [19] = test system: SF-539
# [20] = test system: NCI/ADR-RES
# [21] = test system: UACC-62
# [22] = test system: MDA-MB-231
# [23] = test system: EKVX
# [24] = test system: NCI-H226
# [25] = test system: SNB-75
# [26] = test system: ACHN
# [27] = test system: SR
# [28] = test system: SNB-19
# [29] = test system: NCI-H460
# [30] = test system: Malme-3M
# [31] = test system: MDA-MB-435
# [32] = test system: SK-OV-3
# [33] = test system: UO-31
# [34] = test system: HL-60
# [35] = test system: PC-3
# [36] = test system: A498
# [37] = test system: CAKI-1
# [38] = test system: SN12C
# [39] = test system: HOP-62
# [40] = test system: SK-MEL-28
# [41] = test system: HCT-15
# [42] = test system: UACC-257
# [43] = test system: K562
# [44] = test system: U-251
# [45] = test system: MCF7
# [46] = test system: SW-620
# [47] = test system: HT-29
# [48] = test system: OVCAR-5
# [49] = test system: SF-268
# [50] = test system: KM12
# [51] = test system: DU-145
# [52] = test system: 786-0
# [53] = test system: TK-10
# [54] = test system: LOX IMVI
# [55] = test system: NCI-H522
# [56] = test system: HOP-92
# [57] = test system: IGROV-1
# [58] = test system: OVCAR-8
# [59] = test system: MOLT-4
compound,measurement,setting,value
COc1ccc2oc(=N)c(C(=O)Nc3cccc4ccccc34)cc2c1,GI50,[1],17.9 µM (inactive)
same,GI50,[2],5.41 µM (inactive)
same,GI50,[3],18.8 µM (inactive)
same,GI50,[4],10.4 µM (inactive)
same,GI50,[5],25.1 µM (inactive)
same,GI50,[6],> 100 µM (inactive)
same,GI50,[7],4.69 µM (inactive)
same,GI50,[8],30.2 µM (inactive)
same,GI50,[9],> 100 µM (inactive)
same,GI50,[10],23.6 µM (inactive)
same,GI50,[11],0.456 µM (active)
same,GI50,[12],14.1 µM (inactive)
same,GI50,[13],58.7 µM (inactive)
same,GI50,[14],55.7 µM (inactive)
same,GI50,[15],2.33 µM (inactive)
same,GI50,[16],27.7 µM (inactive)
same,GI50,[17],29.4 µM (inactive)
same,GI50,[18],15.5 µM (inactive)
same,GI50,[19],15.3 µM (inactive)
same,GI50,[20],25.8 µM (inactive)
same,GI50,[21],2.47 µM (inactive)
same,GI50,[22],26 µM (inactive)
same,GI50,[23],38.1 µM (inactive)
same,GI50,[24],25.5 µM (inactive)
same,GI50,[25],10.2 µM (inactive)
same,GI50,[26],25.5 µM (inactive)
same,GI50,[27],0.29 µM (active)
same,GI50,[28],13.5 µM (inactive)
same,GI50,[29],3.95 µM (inactive)
same,GI50,[30],8.65 µM (inactive)
same,GI50,[31],0.319 µM (active)
same,GI50,[32],15.5 µM (inactive)
same,GI50,[33],13 µM (inactive)
same,GI50,[34],23.7 µM (inactive)
same,GI50,[35],12.3 µM (inactive)
same,GI50,[36],13.2 µM (inactive)
same,GI50,[37],29.5 µM (inactive)
same,GI50,[38],37.8 µM (inactive)
same,GI50,[39],11 µM (inactive)
same,GI50,[40],> 100 µM (inactive)
same,GI50,[41],1.61 µM
same,GI50,[42],32 µM (inactive)
same,GI50,[43],0.526 µM (active)
same,GI50,[44],13 µM (inactive)
same,GI50,[45],5.7 µM (inactive)
same,GI50,[46],7.57 µM (inactive)
same,GI50,[47],15.1 µM (inactive)
same,GI50,[48],41.3 µM (inactive)
same,GI50,[49],25.9 µM (inactive)
same,GI50,[50],27.7 µM (inactive)
same,GI50,[51],24 µM (inactive)
same,GI50,[52],11.8 µM (inactive)
same,GI50,[53],19.6 µM (inactive)
N#Cc1nc(-c2ccco2)oc1N,GI50,[1],> 10 µM (inactive)
same,GI50,[2],> 10 µM (inactive)
same,GI50,[54],> 10 µM (inactive)
same,GI50,[55],> 10 µM (inactive)
same,GI50,[5],> 10 µM (inactive)
same,GI50,[6],> 10 µM (inactive)
same,GI50,[56],> 10 µM (inactive)
same,GI50,[7],> 10 µM (inactive)
same,GI50,[8],> 10 µM (inactive)
same,GI50,[9],> 10 µM (inactive)
same,GI50,[57],> 10 µM (inactive)
same,GI50,[10],> 10 µM (inactive)
same,GI50,[11],> 10 µM (inactive)
same,GI50,[12],> 10 µM (inactive)
same,GI50,[13],> 10 µM (inactive)
same,GI50,[14],> 10 µM (inactive)
same,GI50,[15],> 10 µM (inactive)
same,GI50,[16],> 10 µM (inactive)
same,GI50,[17],> 10 µM (inactive)
same,GI50,[18],> 10 µM (inactive)
same,GI50,[19],> 10 µM (inactive)
same,GI50,[20],> 10 µM (inactive)
same,GI50,[58],> 10 µM (inactive)
same,GI50,[21],> 10 µM (inactive)
same,GI50,[22],> 10 µM (inactive)
same,GI50,[59],> 10 µM (inactive)
same,GI50,[23],> 10 µM (inactive)
same,GI50,[24],> 10 µM (inactive)
same,GI50,[25],> 10 µM (inactive)
same,GI50,[26],> 10 µM (inactive)
same,GI50,[27],> 10 µM (inactive)
same,GI50,[28],> 10 µM (inactive)
same,GI50,[29],> 10 µM (inactive)
same,GI50,[30],> 10 µM (inactive)
same,GI50,[31],> 10 µM (inactive)
same,GI50,[32],> 10 µM (inactive)
same,GI50,[33],> 10 µM (inactive)
same,GI50,[34],> 10 µM (inactive)
same,GI50,[35],> 10 µM (inactive)
same,GI50,[37],> 10 µM (inactive)
same,GI50,[39],> 10 µM (inactive)
same,GI50,[40],> 10 µM (inactive)
same,GI50,[41],> 10 µM
same,GI50,[42],> 10 µM (inactive)
same,GI50,[43],> 10 µM (inactive)
same,GI50,[45],> 10 µM (inactive)
same,GI50,[46],> 10 µM (inactive)
same,GI50,[47],> 10 µM (inactive)
same,GI50,[48],> 10 µM (inactive)
same,GI50,[49],> 10 µM (inactive)
same,GI50,[50],> 10 µM (inactive)
same,GI50,[51],> 10 µM (inactive)
same,GI50,[52],> 10 µM (inactive)
same,GI50,[53],> 10 µM (inactive)
CC(C)(C)n1c(=O)[nH]n(C2NN=Cc3cccc4cccc2c34)c1=O (centres undefined),GI50,[1],48 µM (inactive)
same,GI50,[3],32.1 µM (inactive)
same,GI50,[4],51.9 µM (inactive)
same,GI50,[54],26.9 µM (inactive)
same,GI50,[5],18.7 µM (inactive)
same,GI50,[6],30 µM (inactive)
same,GI50,[7],10.9 µM (inactive)
same,GI50,[8],39.4 µM (inactive)
same,GI50,[10],47.9 µM (inactive)
same,GI50,[11],26.4 µM (inactive)
same,GI50,[12],16.3 µM (inactive)
same,GI50,[13],39.5 µM (inactive)
same,GI50,[14],21.9 µM (inactive)
same,GI50,[15],11.5 µM (inactive)
same,GI50,[16],38.5 µM (inactive)
same,GI50,[17],31.6 µM (inactive)
same,GI50,[18],42.6 µM (inactive)
same,GI50,[19],16.9 µM (inactive)
same,GI50,[20],32.8 µM (inactive)
same,GI50,[58],40.3 µM (inactive)
same,GI50,[21],23.9 µM (inactive)
same,GI50,[22],21.5 µM (inactive)
same,GI50,[59],20.8 µM (inactive)
same,GI50,[23],15.4 µM (inactive)
same,GI50,[24],23.2 µM (inactive)
same,GI50,[25],21.9 µM (inactive)
same,GI50,[27],11.4 µM (inactive)
same,GI50,[28],34.9 µM (inactive)
same,GI50,[29],30.1 µM (inactive)
same,GI50,[30],36 µM (inactive)
same,GI50,[31],34.3 µM (inactive)
same,GI50,[32],50 µM (inactive)
same,GI50,[33],14.1 µM (inactive)
same,GI50,[34],12.9 µM (inactive)
same,GI50,[35],31.8 µM (inactive)
same,GI50,[36],25.5 µM (inactive)
same,GI50,[37],27.5 µM (inactive)
same,GI50,[38],79.3 µM (inactive)
same,GI50,[40],57.3 µM (inactive)
same,GI50,[41],31.3 µM
same,GI50,[42],54.3 µM (inactive)
same,GI50,[43],17.9 µM (inactive)
same,GI50,[44],44.2 µM (inactive)
same,GI50,[45],30.6 µM (inactive)
same,GI50,[46],47.3 µM (inactive)
same,GI50,[47],20.4 µM (inactive)
same,GI50,[48],69 µM (inactive)
same,GI50,[49],26.1 µM (inactive)
same,GI50,[50],34 µM (inactive)
same,GI50,[51],> 100 µM (inactive)
same,GI50,[52],57.1 µM (inactive)
same,GI50,[53],41.3 µM (inactive)
